The nature of this data set: Hydrolysis rate / drug release rate of the compounds (release of JAK inhibitor, HPLC). Type of data set: physicochemical. Conditions: % release of JAK inhibitor from sample in acetonitrile/water=7/3 (v/v), 37° C. constant temperature shaker, sampled days 1-4, HPLC. The protocol:
Analysis Method for Hydrolysis Rate of Compounds of the Present Invention
1. Preparation of Standard Working Curve Solution
About 10 mg of JAK inhibitors (tofacitinib and baricitinib) reference substances were weighed into a 25 mL volumetric flask, acetonitrile/water=7/3 (v/v) was added to dissolve and dilute to the marked volume, serving as a stock solution. The stock solution was diluted with a suitable dilution factor to obtain linear solutions of each concentration: 0.0002 mg/mL, 0.0004 mg/mL, 0.004 mg/mL, 0.04 mg/mL, and 0.08 mg/mL.
About 10 mg of JAK inhibitors (Oclacitinib, Ruxolitinib, Delgocitinib, and Upadacitinib) reference substances were weighed into a 25 mL volumetric flask, acetonitrile/water=7/3 (v/v) was added to dissolve and dilute to the marked volume, serving as a stock solution. The stock solution was diluted with a suitable dilution factor to obtain linear solutions of each concentration: 0.0002 mg/mL, 0.0004 mg/mL, 0.004 mg/mL, 0.04 mg/mL, and 0.08 mg/mL.
2. Preparation of Sample Solution
About 5 mg of the sample (the compound prepared in the present invention) was weighed into a 20 mL volumetric flask, acetonitrile/water=7/3 (v/v) was added to dissolve and dilute to the marked volume, serving as a stock solution. An appropriate amount of HPLC was loaded as the 0-day sample. The test solution was sealed with a sealing film and placed in a 37° C. constant temperature shaker. The test samples were taken at the same time on days 1, 2, 3, and 4 respectively. the release amount of JAK inhibitor in the sample was calculated according to the sample weight and JAK inhibitor standard curve.
3. Calculation Formula % Release of JAK Inhibitor r=100%×((AJAK Inhibitor−b)/a)/((W/20×M2/M1) wherein • AJAK inhibitor is the peak area of JAK inhibitor in the sample chromatogram • b is the intercept of the standard curve M1 is the molecular weight of the sample a is the slope of the standard curve
W is the sample weight (mg) M2 is the molecular weight of the JAK inhibitor
4. Chromatographic Conditions

On to `CC(C)Cc1ccc(C(C)C(=O)n2ccc3c(N(C)[C@H]4CN(C(=O)CC#N)CC[C@H]4C)ncnc32)cc1` (stereo partly drawn) [Ex. 1, 3-((3R,4R)-3-((7-(2-(4-isobutylphenyl)propanoyl)-7H-pyrrolo [2,3-d]pyrimidin-4-yl) (methyl)amino)-4-methylpiperidin-1-yl)-3-oxopropanenitrile], for which the “Release Rate (%/day)” value worked out at 8.26 %/day.

`CC(C)Cc1ccc([C@H](C)C(=O)OCn2ccc3c(N(C)[C@H]4CN(C(=O)CC#N)CC[C@H]4C)ncnc32)cc1` [Ex. 3]: the “Release Rate (%/day)” value was found to be 0.05 %/day.

As for `Cc1cccc(Nc2ccccc2C(=O)n2ccc3c(N(C)[C@H]4CN(C(=O)CC#N)CC[C@H]4C)ncnc32)c1C` [Ex. 4, 3-((3R,4R)-3-((7-(2-((2,3-dimethylphenyl)amino)benzoyl)-7H-pyrrolo[2,3-d]pyrimidin-4-yl)(methyl)amino)-4-methylpiperidin-1-yl)-3-oxopropanenitrile], the “Release Rate (%/day)” value was 3.32 %/day.

Regarding `COc1ccc2cc([C@H](C)C(=O)n3ccc4c(N(C)[C@H]5CN(C(=O)CC#N)CC[C@H]5C)ncnc43)ccc2c1` [Ex. 6, 3-((3R, 4R)-3-((7-((S)-2-(6-methoxynaphthalen-2-yl)propanoyl)-7H-pyrrolo[2,3-d]pyrimidin-4-yl) (methyl)amino)-4-methylpiperidin-1-yl)-3-oxopropanenitrile], the “Release Rate (%/day)” value was found to be 9.82 %/day.

For the compound `CC(C(=O)n1ccc2c(N(C)[C@H]3CN(C(=O)CC#N)CC[C@H]3C)ncnc21)c1cccc(C(=O)c2ccccc2)c1` (stereo partly drawn) [Ex. 7, 3-((3R,4R)-3-((7-(2-(3-benzoylphenyl)propanoyl)-7H-pyrrolo[2,3-d]pyrimidin-4-yl) (methyl)amino)-4-methylpiperidin-1-yl)-3-oxopropanenitrile], the “Release Rate (%/day)” value came out at 15.65 %/day.

With `CC(C(=O)n1ccc2c(N(C)[C@H]3CN(C(=O)CC#N)CC[C@H]3C)ncnc21)c1ccc(-c2ccccc2)c(F)c1` (stereo partly drawn) [Ex. 8, 3-((3R, 4R)-3-((7-(2-(2-fluoro-[1, 1′-biphenyl]-4-yl)propanoyl)-7H-pyrrolo[2,3-d]pyrimidin-4-yl)(methyl)amino)-4-methylpiperidin-1-yl)-3-oxopropanenitrile], the “Release Rate (%/day)” value was 14.77 %/day.

Regarding `C[C@@H]1CCN(C(=O)CC#N)C[C@@H]1N(C)c1ncnc2c1ccn2C(=O)Cc1ccccc1Nc1c(Cl)cccc1Cl` [Ex. 9], the “Release Rate (%/day)” value came out at 13.49 %/day.

As to `CC(C(=O)n1ccc2c(N(C)[C@H]3CN(C(=O)CC#N)CC[C@H]3C)ncnc21)c1cccc(Oc2ccccc2)c1` (stereo partly drawn) [Ex. 10, 3-((3R,4R)-4-methyl-3-(methyl (7-(2-(3-phenoxyphenyl)propanoyl)-7H-pyrrolo [2,3-d]pyrimidin-4-yl)amino)piperidin-1-yl)-3-oxopropanenitrile], the “Release Rate (%/day)” value is given as 11.25 %/day.

With `CC(C(=O)n1ccc2c(N(C)[C@H]3CN(C(=O)CC#N)CC[C@H]3C)ncnc21)c1ccc(CC2CCCC2=O)cc1` (stereo partly drawn) [Ex. 11, 3-((3R,4R)-4-methyl-3-(methyl (7-(2-(4-((2-oxocyclopentyl)methyl)phenyl)propanoyl)-7H-pyrrolo[2,3-d]pyrimidin-4-yl)amino)piperidin-1-yl)-3-oxopropanenitrile], the “Release Rate (%/day)” value stood at 9.17 %/day.

`CC(=O)Nc1ccc(CC(=O)n2ccc3c(N(C)[C@H]4CN(C(=O)CC#N)CC[C@H]4C)ncnc32)cc1` [Ex. 13, N-(4-(2-(4-(((3R, 4R)-1-(2-cyanoacetyl)-4-methylpiperidin-3-yl) (methyl)amino)-7H-pyrrolo[2,3-d]pyrimidin-7-yl)-2-oxoethyl)phenyl)acetamide]: the “Release Rate (%/day)” value came out at 12.18 %/day.

For `CCc1cccc2c3c([nH]c12)C(CC)(CC(=O)n1ccc2c(N(C)[C@H]4CN(C(=O)CC#N)CC[C@H]4C)ncnc21)OCC3` (stereo partly drawn) [Ex. 14, 3-((3R,4R)-3-((7-(2-(1,8-diethyl-1,3,4,9-tetrahydropyrano[3,4-b]indol-1-yl)acetyl)-7H-pyrrolo[2,3-d]pyrimidin-4-yl) (methyl)amino)-4-methylpiperidin-1-yl)-3-oxopropanenitrile], the “Release Rate (%/day)” value was found to be 0.98 %/day.

With `CC(=O)Oc1ccccc1C(=O)n1ccc2c(N(C)[C@H]3CN(C(=O)CC#N)CC[C@H]3C)ncnc21` [Ex. 15, 2-(4-((3R, 4R)-1-(2-cyanoacetyl)-4-methylpiperidin-3-yl) (methyl)amino)-7H-pyrrolo[2,3-d] pyrimidine-7-carbonyl)phenyl acetate], the “Release Rate (%/day)” value amounted to 1.86 %/day.

Turning to `C[C@@H]1CCN(C(=O)CC#N)C[C@@H]1N(C)c1ncnc2c1ccn2C(=O)[C@@H](NC(=O)OC(C)(C)C)c1ccccc1` [Ex. 16, Tert-butyl ((S)-2-(4-(((3R, 4R)-1-(2-cyanoacetyl)-4-methylpiperidin-3-yl) (methyl)amino)-7H-pyrrolo[2,3-d]pyrimidin-7-yl)-2-oxo-1-phenylethyl)carbamate], the “Release Rate (%/day)” value is given as 39.31 %/day.

For `CCS(=O)(=O)N1CC(CC#N)(n2cc(-c3ncnc4c3ccn4C(=O)[C@@H](C)c3ccc4cc(OC)ccc4c3)cn2)C1` [Ex. 18, (S)-2-(1-(ethylsulfonyl)-3-(4-(7-(2-(6-methoxynaphthalen-2-yl)propanoyl)-7H-pyrrolo [2,3-d]pyrimidin-4-yl)-1H-pyrazol-1-yl)azetidin-3-yl) acetonitrile], the “Release Rate (%/day)” value came out at 2.97 %/day.

Turning to `CCS(=O)(=O)N1CC(CC#N)(n2cc(-c3ncnc4c3ccn4C(=O)C(C)c3cccc(C(=O)c4ccccc4)c3)cn2)C1` (stereo not shown) [Ex. 19, 2-(3-(4-(7-(2-(3-benzoylphenyl)propanoyl)-7H-pyrrolo [2,3-d]pyrimidin-4-yl)-1H-pyrazol-1-yl)-1-(ethylsulfonyl)azetidin-3-yl) acetonitrile], the “Release Rate (%/day)” value is on record as 6.25 %/day.

Turning to `CCS(=O)(=O)N1CC(CC#N)(n2cc(-c3ncnc4c3ccn4C(=O)C(C)c3ccc(-c4ccccc4)c(F)c3)cn2)C1` (stereo not shown) [Ex. 20, 2-(1-(ethylsulfonyl)-3-(4-(7-(2-(2-fluoro-[1, 1′-biphenyl]-4-yl)propanoyl)-7H-pyrrolo [2,3-d]pyrimidin-4-yl)-1H-pyrazol-1-yl)azetidin-3-yl) acetonitrile], the “Release Rate (%/day)” value is 5.06 %/day.

`CCS(=O)(=O)N1CC(CC#N)(n2cc(-c3ncnc4c3ccn4C(=O)C(C)c3cccc(Oc4ccccc4)c3)cn2)C1` (stereo not shown) [Ex. 21, 2-(1-(Ethylsulfonyl)-3-(4-(7-(2-(3-phenoxyphenyl)propanoyl)-7H-pyrrolo [2,3-d]pyrimidin-4-yl)-1H-pyrazol-1-yl)azetidin-3-yl) acetonitrile]: the “Release Rate (%/day)” value is 4.6 %/day.

As to `CCS(=O)(=O)N1CC(CC#N)(n2cc(-c3ncnc4c3ccn4C(=O)C(C)c3ccc(CC4CCCC4=O)cc3)cn2)C1` (stereo not shown) [Ex. 22], the “Release Rate (%/day)” value is recorded as 2.75 %/day.

Regarding `CCS(=O)(=O)N1CC(CC#N)(n2cc(-c3ncnc4c3ccn4C(=O)Cc3c(C)n(C(=O)c4ccc(Cl)cc4)c4ccc(OC)cc34)cn2)C1` [Ex. 23, 2-(3-(4-(7-(2-(1-(4-chlorobenzoyl)-5-methoxy-2-methyl-1H-indol-3-yl)acetyl)-7H-pyrrolo [2,3-d]pyrimidin-4-yl)-1H-pyrazol-1-yl)-1-(ethylsulfonyl)azetidin-3-yl) acetonitrile], the “Release Rate (%/day)” value came out at 7.63 %/day.

(Values after patent US12290519B2, “Anti-inflammatory coupling compound drug, and preparation method therefor and use thereof” (COVAL BIOPHARMA (SHANGHAI) CO., LTD., priority 2021, dated 2025).)
